Results as given in patent US20040166079A1, “N-Lauroyl amino acid composition for slimming the human body” (priority 2003, published 2004).

Tested on: normal human dermal fibroblasts
Assay: Measurement in vitro of the production of hyaluronic acid (STAINS ALL, 630 nm)
Assay type: cell-based
Details: incubation concentration 10 ng/ml; 5 days
Description: Glycosaminoglycans (GAGs) are the major proteoglycans of the dermis and play an essential role in maintaining the integrity of the skin. Hyaluronic acid is a major nonsulphated GAG which plays an essential role in the hydration of the skin by its capacity to fix up to 1000 times its weight as water. The effect of the products on the hyaluronic acid level was evaluated by a technique in vitro.
The hyaluronic acid level is measured in cultures of normal human dermal fibroblasts. The cells are incubated for 5 days in the presence of the products solubilized in the incubation medium. At the end of this incubation, the extracellular media in which the hyaluronic acid is secreted are collected. The hyaluronic acid is stained with a specific stain, STAINS ALL ((1-ethyl-2-[3-(1-ethylnaphtho-[1,2-d]thiazolin-2-ylidene)-2-methylpropenyl]naphtho-[1,2-d]thiazolium bromide, SIGMA), which interacts with it to produce a change in the absorption spectrum between 620 and 660 nm; the measurement is made by spectrophotometry. A hyaluronic acid series is prepared in parallel. […]
Evaluation of the effects: After 5 days of incubation in the presence of the products, the incubation media are collected and incubated in the presence of STAINS ALL. […] The quantification is made by spectrophotometry at 630 nm. […] The results are expressed as extracellular hyaluronic acid relative to the control.

EGF: reference in the hyaluronic acid production test, 10 ng/ml
Extracellular hyaluronic acid produced (% relative to the control): 133%
